Test results published in USRE37886E1, “1-(1,2-Disubstituted piperidinyl)-4-substituted piperazine derivatives” (Janssen Pharmaceuticals, N.V., priority 1995, dated 2002).

Experiments:
[1] = tested on: substance P induced plasma extravasation; test: Antagonism of substance P induced plasma extravasation in guinea-pigs; format: in vivo; details: lowest active dose, female guinea-pigs; for LAD nose: compound 1 hour prior to substance P (2 mg/kg, femoral artery), blue colouring of nose 10 minutes after challenge; for LAD conjunctiva / LAD forepaws / LAD trachea / LAD urinary bladder: compound 1 hour prior to substance P; for LAD conjunctiva: blue colouring of conjunctiva 10 minutes after challenge; for LAD forepaws: blue colouring of forepaws 10 minutes after challenge; for LAD trachea: blue colouring of trachea 30 minutes after challenge; for LAD urinary bladder: blue colouring of urinary bladder 30 minutes after challenge
Description: (§1) The compounds of the present invention are potent inhibitors of neurokinin-mediated effects, in particular those mediated via the NK1 receptor, and may therefore be described as tachykinin antagonists, especially as substance P antagonists, as indicated in vitro by the antagonism of substance P induced relaxation of pig coronary arteries which is described hereinafter. The binding affinity of the present compounds for the human, guinea-pig and gerbil neurokinin receptors may be determined in vitro in a receptor binding test using ^3H-substance-P as radioligand. The subject compounds also show substance-P antagonistic activity in vivo as may be evidenced by, for instance, the antagonism of substance P-induced plasma extravasation in guinea-pigs, or the antagonism of drug-induced emesis in ferrets (Watson et al., Br. J. Pharmacol. 115, 84-94, 1995).
Antagonism of substance P induced plasma extravasation in guinea-pigs
Plasma extravasation was induced by injection of substance P (2 mg/kg) in the femoral artery of female guinea-pigs. Evans Blue dye (30 mg/kg) was injected simultaneously. The test compound or solvent was administered 1 hour prior to substance P injection. 10 minutes after challenge, the aminals were checked for blue colouring (a direct measure for plasma extravasation) of the nose, the forepaws, and the conjectiva. 30 minutes after challenge, the animals were sacrificed by CO2 gas inhalation and checked for blue colouring of the trachea and the urinary bladder. […]

[2] = tested on: substance-P induced relaxation of the pig coronary arteries; test: Antagonism of substance-P induced relaxation of the pig coronary arteries; format: cell-based; details: concentration at which 50% of the response to 10^−9 M substance P was inhibited, 30 minutes incubation, prostaglandin F2a precontracted segments
Description: as §1
Antagonism of substance-P induced relaxation of the pig coronary arteries
Segments of coronary artieries taken from pigs (killed by injection of an overdose of sodium pentobarbital) were inverted and mounted for recordign of isometric tension in organ baths (volume 20 ml) with the endothelium at the outside. The preparations were bathed in Krebs-Henseleit solution. The solution was kept at 37° C. and gassed with a mixture of O2/CO2 (95/5). After stabilisation of the preparations, prostaglandin F2a (10^−5 M) was administered to induce a contraction. This was repeated until contractivle responses became stable. Then prostaglandin F2a was again administered and substance P(3×10^−10 M and 10^−9 M cumulatively) was added. Substance P induced endothelium dependent relaxations. After washing away the agonists, a known concentratin of a compound of formula (I) was added. After an incubation period of 30 minutes, prostaglandin F2a ([…]) and the same concentrations of sbustance P as described above were again administered in the presence of the compound to be tested. Relaxations caused by substance P were expressed as relaxations under control conditions, and percent inhibition of the response to […] substance P was taken as a measure of the antagonistic activity of the compound to be tested. Table 6 lists the IC50 values (concentration at which 50% of the response to […] substance P was inhibited by the test compound) for the tested compounds.

SMILES	LAD nose [1] [mg/kg]	LAD conjunctiva [1] [mg/kg]	LAD forepaws [1] [mg/kg]	LAD trachea [1] [mg/kg]	LAD urinary bladder [1] [mg/kg]	IC50 [2] [nM]	IC50 ([2]; Sus scrofa, 0.5 h) [nM]
Cc1cc(C)cc(C(=O)N2CCC(N3CCN(C(c4ccccc4)c4ccccc4)CC3)CC2Cc2ccccc2)c1 (racemic) [Compound 12]	>40.0	>40.0	>40.0	>40	40.0		
O=C(c1cc(C(F)(F)F)cc(C(F)(F)F)c1)N1CCC(N2CCN(c3nc4ccccc4[nH]3)CC2)CC1Cc1ccccc1 (racemic) [Compound 40]	10.0	10.0	10.0	>40	>40		
Cc1cc(C)cc(NC(=O)CN2CCN(C3CCN(C(=O)c4cc(C(F)(F)F)cc(C(F)(F)F)c4)C(Cc4ccccc4)C3)CC2)c1 (racemic) [Compound 47]	40.0	40.0	40.0	>40	>40		
Cc1cccc(C)c1NC(=O)CN1CCN(C2CCN(C(=O)c3cc(C(F)(F)F)cc(C(F)(F)F)c3)C(Cc3ccccc3)C2)CC1 (racemic) [Compound 58]						0.24	
O=C(c1cc(C(F)(F)F)cc(C(F)(F)F)c1)N1CCC(N2CCCN(Cc3ccccc3)CC2)CC1Cc1ccccc1 (racemic) [Compound 63]						8.38	
Cc1cccc(C)c1NC(=O)CN1CCCN(C2CCN(C(=O)c3cc(C(F)(F)F)cc(C(F)(F)F)c3)C(Cc3ccccc3)C2)CC1 (racemic) [Compound 65]						6.39	
CCOCCn1c(NC(=O)CN2CCN(C3CCN(C(=O)c4cc(C(F)(F)F)cc(C(F)(F)F)c4)C(Cc4ccccc4)C3)CC2)nc2ccccc21 (racemic) [Compound 69]						1.57	
NC(=O)c1cc(Cl)c(NC(=O)CN2CCN([C@@H]3CCN(C(=O)c4cc(C(F)(F)F)cc(C(F)(F)F)c4)[C@@H](Cc4ccccc4)C3)CC2)c(Cl)c1 (racemic) [Compound 74]	10.0	10.0	10.0	>40	>40		
CC(C)NC(=O)CN1CCN(C2CCN(C(=O)c3cc(C(F)(F)F)cc(C(F)(F)F)c3)C(Cc3ccccc3)C2)CC1 (racemic) [Compound 76]						14.1	
CC(=O)NCC(c1ccccc1)N1CCN(C2CCN(C(=O)c3cc(C(F)(F)F)cc(C(F)(F)F)c3)C(Cc3ccccc3)C2)CC1 (racemic) [Compound 82]	2.50	2.50	2.50	10.0	>40		
CC(=O)NCC(c1ccccc1)N1CCN(C2CCN(C(=O)c3cc(C(F)(F)F)cc(C(F)(F)F)c3)C(Cc3ccccc3)C2)CC1 (racemic) [Compound 83]	0.63	2.50	0.63	>40	0.63		
O=C(c1cc(C(F)(F)F)cc(C(F)(F)F)c1)N1CCC(N2CCN(CC(O)c3ccccc3)CC2)CC1Cc1ccccc1 (racemic) [Compound 86]						2.13	
O=C(O)C=CC(=O)O.O=C(O)C=CC(=O)O.O=C(c1cc(C(F)(F)F)cc(C(F)(F)F)c1)N1CCC(N2CCN(CCc3ccccc3)CC2)CC1Cc1ccccc1 (racemic) [Compound 90]	10.0	10.0	10.0	10.0	>40		
CN(CC(CCN1CCN(C2CCN(C(=O)c3cc(C(F)(F)F)cc(C(F)(F)F)c3)C(Cc3ccccc3)C2)CC1)c1ccc(Cl)c(Cl)c1)C(=O)c1ccccc1 (racemic) [Compound 92]						0.78	
CN(CC(CCN1CCN([C@H]2CCN(C(=O)c3cc(C(F)(F)F)cc(C(F)(F)F)c3)[C@@H](Cc3ccccc3)C2)CC1)c1ccc(Cl)c(Cl)c1)C(=O)c1ccccc1 (mixture of isomers) [Compound 93, (±)-cis-N-[4-[4-[1-[3,5-bis(trifluoromethyl)benzoyl]-2-(phenylmethyl)-4-piperidinyl]-1-piperazinyl]-2-(3,4-dichlorophenyl)butyl]-N-Methylbenzamide (E)-2-butenedioate (1:2)]							4.99
CCn1nnn(CCN2CCN(C3CCN(C(=O)c4cc(C(F)(F)F)cc(C(F)(F)F)c4)C(Cc4ccccc4)C3)CC2)c1=O.O=C(O)C=CC(=O)O.O=C(O)C=CC(=O)O (racemic) [Compound 96]	10.0	10.0	10.0	>40	>40		
O=C(CN1CCN(C2CCN(C(=O)c3cc(C(F)(F)F)cc(C(F)(F)F)c3)C(Cc3ccccc3)C2)CC1)Nc1nccn1Cc1ccccc1 (racemic) [Compound 97]						1.58	
O=C(CN1CCN(C2CCN(C(=O)c3cc(C(F)(F)F)cc(C(F)(F)F)c3)C(Cc3ccccc3)C2)CC1)C1CCc2ccccc21 (racemic) [Compound 99]						1.46	
Cc1cccc(C)c1NC(=O)C(c1ccccc1)N1CCN(C2CCN(C(=O)c3cc(C(F)(F)F)cc(C(F)(F)F)c3)C(Cc3ccccc3)C2)CC1 (racemic) [Compound 102]						1.85	
Cc1cccc(C)c1NC(=O)CCN1CCN(C2CCN(C(=O)c3cc(C(F)(F)F)cc(C(F)(F)F)c3)C(Cc3ccccc3)C2)CC1.O=C(O)C=CC(=O)O.O=C(O)C=CC(=O)O (racemic) [Compound 103]	2.50	2.50	2.50	10.0	2.50		
Cc1cccc2c1N(C(=O)CN1CCN(C3CCN(C(=O)c4cc(C(F)(F)F)cc(C(F)(F)F)c4)C(Cc4ccccc4)C3)CC1)CC2 (racemic) [Compound 104]						0.3	
Cc1cc(C)cc(C(=O)NCCN2CCN(C3CCN(C(=O)c4cc(C(F)(F)F)cc(C(F)(F)F)c4)C(Cc4ccccc4)C3)CC2)c1 (racemic) [Compound 115]						2.23	
O=C(c1cc(C(F)(F)F)cc(C(F)(F)F)c1)N1CCC(N2CCN(c3cccc(C(F)(F)F)c3)CC2)CC1Cc1ccccc1 (racemic) [Compound 120]						0.82	
O=C(CN1CCN(C2CCN(C(=O)c3cc(C(F)(F)F)cc(C(F)(F)F)c3)C(Cc3ccccc3)C2)CC1)N1Cc2ccccc2C1 (racemic) [Compound 121]						2.77	
Cc1cc(C)cc(C(=O)N2CCC(N3CCN(CC=Cc4ccccc4)CC3)CC2Cc2ccccc2)c1 (stereo not drawn) [Compound 8]	10.0	10.0	10.0	>40	>40		
O=C(c1ccco1)N1CCN(C2CCN(C(=O)c3cc(C(F)(F)F)cc(C(F)(F)F)c3)C(Cc3ccccc3)C2)CC1 (stereo not drawn) [Compound 21]	10.0	10.0	10.0	>40	10.0		
Cc1ncc(Cn2c(N3CCN(C4CCN(C(=O)c5cc(C(F)(F)F)cc(C(F)(F)F)c5)C(Cc5ccccc5)C4)CC3)nc3ccccc32)o1 (stereo not drawn) [Compound 23]	10.0	40.0	10.0	>40	>40		
